We go through twelve compounds from ChEMBL document CHEMBL1201862, “PubChem BioAssay data set” (2004).

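Method: 48-hour compound exposure of cells in 96-well plates, five concentrations, linear interpolation of endpoints. Here, GI50 denotes the concentration required for 50% inhibition of growth.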 Calls of active or inactive are those of the source. No stated cut-off is given here; in the data, active = GI50 up to about 1.1 µM and inactive = higher.

Some test systems named below: A498; SF-268; IGROV-1; HL-60; SK-MEL-5; SR; SK-MEL-28; OVCAR-4; HOP-92; RXF 393; COLO 205; OVCAR-5; HT-29; RPMI-8226; KM12; DU-145; BT-549; MDA-MB-435; PC-3; Hs-578T.
Test in all cases: NCI tumour cell line growth inhibition, 48 h

For the compound `Cc1cccc2c1c1ccc3c(c1n2C)C(=O)C=CC3=O`, the GI50 is 27.4 µM (inactive) in the assay on A498; 14 µM (inactive) with SF-268; 18.3 µM (inactive) with IGROV-1; 0.521 µM (active) with HL-60; 14.8 µM (inactive) in the assay on SK-MEL-5; 1.43 µM (inactive) in the assay on SR. Also, the GI50 in the assay on SK-MEL-28 is 9.71 µM (inactive); in the assay on OVCAR-4, 11.8 µM (inactive); in the assay on HOP-92, 2.08 µM (inactive); in the assay on RXF 393, 3.48 µM (inactive); with COLO 205 it was 2.39 µM (inactive); in the assay with OVCAR-5, 15.9 µM (inactive). The figures for the GI50 in the assay with HT-29, with RPMI-8226 and in the assay on KM12 were 3.47 µM (inactive), 2.04 µM (inactive) and 13.2 µM (inactive), respectively.
In the case of `NNC(=O)Cn1c2ccc(Br)cc2c2nc3ccccc3nc21`, the GI50 was 47.1 µM (inactive) in the assay on A498; > 100 µM (inactive) in the assay on SF-268; 31 µM (inactive) in the assay with IGROV-1; > 100 µM (inactive) with DU-145; > 100 µM (inactive) in the assay with SK-MEL-5; > 100 µM (inactive) with SR. Also, the GI50 with BT-549 is > 100 µM (inactive); in the assay on MDA-MB-435, > 100 µM (inactive); with SK-MEL-28 it was 47.8 µM (inactive); in the assay with RXF 393, 23.2 µM (inactive); with COLO 205 it was > 100 µM (inactive); in the assay with OVCAR-5, 53.7 µM (inactive). Besides, the GI50 in the assay on PC-3, with HT-29, in the assay with RPMI-8226 and with KM12 was > 100 µM (inactive) each time.
Regarding `NCCC(=O)N[C@H](Cc1cc(O)c(O)c(SCC(NC(=O)CC[C@H](N)C(=O)O)C(=O)NCC(=O)O)c1)C(=O)O` (stereo partly specified), the GI50 in the assay with A498, in the assay with SF-268, with IGROV-1, in the assay with DU-145, with SK-MEL-5 and in the assay on BT-549 was > 50 µM (inactive) in each case. Moreover, the GI50 with MDA-MB-435, in the assay with SK-MEL-28, in the assay on OVCAR-4, in the assay with HOP-92, with RXF 393 and with COLO 205 was > 50 µM (inactive) throughout. Further, the GI50 in the assay with OVCAR-5, in the assay with PC-3, in the assay on HT-29, in the assay on RPMI-8226 and in the assay on KM12 was > 50 µM (inactive) in each case.
For `O=C1NC(=N/c2ccccc2)/C(=N\c2ccccc2)N1c1ccccc1`, the GI50 in the assay on A498 is 17.2 µM (inactive); with SF-268, 17.9 µM (inactive); in the assay on IGROV-1, 16.6 µM (inactive); in the assay with DU-145, 12.4 µM (inactive); in the assay with HL-60, 26.2 µM (inactive); with SK-MEL-5, 15.9 µM (inactive). Besides, the GI50 with SR is 20 µM (inactive); in the assay with MDA-MB-435, 14.2 µM (inactive); in the assay on SK-MEL-28, 14.8 µM (inactive); in the assay on OVCAR-4, 18.4 µM (inactive); in the assay on HOP-92, 16.3 µM (inactive); in the assay on Hs-578T, 16.6 µM (inactive). Further, the GI50 in the assay with RXF 393 was 15 µM (inactive); in the assay with COLO 205, 14.8 µM (inactive); in the assay with OVCAR-5, 18 µM (inactive); in the assay with PC-3 it was 14.5 µM (inactive); in the assay with HT-29 it was 16 µM (inactive); in the assay with RPMI-8226 it was 27 µM (inactive). In the assay with KM12, the GI50 was 15.6 µM (inactive).
For `Cc1ccc2nc(N/N=C/c3ccc(C)s3)cc(C)c2c1`, the GI50 in the assay with SF-268 is 11.6 µM (inactive); with IGROV-1 it was 6.87 µM (inactive); with DU-145 it was 11 µM (inactive); in the assay with HL-60, 4.71 µM (inactive); with SK-MEL-5, 4.56 µM (inactive); in the assay on SR it was 19.7 µM (inactive). Moreover, the GI50 was 7.31 µM (inactive) in the assay on MDA-MB-435; 6.76 µM (inactive) with SK-MEL-28; 10.3 µM (inactive) in the assay on OVCAR-4; 4.44 µM (inactive) in the assay on HOP-92; 15.2 µM (inactive) with Hs-578T; 13.3 µM (inactive) in the assay with RXF 393. Besides, the GI50 in the assay with COLO 205 is 3.79 µM (inactive); with OVCAR-5, 10.1 µM (inactive); with PC-3 it was 11.8 µM (inactive); in the assay on HT-29 it was 3.51 µM (inactive); with RPMI-8226 it was 3.61 µM (inactive); in the assay on KM12, 4.76 µM (inactive).
On to `C[C@]12CC[C@H](O)CC1=CC[C@@H]1C2CC[C@]2(C)C(=O)NC(=O)CC12` (stereo partly specified), for which the GI50 was > 100 µM (inactive) with A498; 65.9 µM (inactive) in the assay with SF-268; 96.8 µM (inactive) in the assay on IGROV-1; > 100 µM (inactive) in the assay on HL-60; > 100 µM (inactive) with SK-MEL-5; 37.2 µM (inactive) in the assay with SR. The GI50 is > 100 µM (inactive) with SK-MEL-28; > 100 µM (inactive) in the assay on OVCAR-4; > 100 µM (inactive) in the assay with HOP-92; > 100 µM (inactive) with RXF 393; 36.8 µM (inactive) with COLO 205; > 100 µM (inactive) with OVCAR-5. Further, the values for the GI50 in the assay on HT-29, in the assay with RPMI-8226 and with KM12 were 82.2 µM (inactive), 23 µM (inactive) and 35.5 µM (inactive), respectively.
As for `CCCCC(=O)Nc1ccc2cc(C(=O)OC)c(ON3C(=O)c4ccccc4C3=O)nc2n1`, the GI50 with A498 was 27.4 µM (inactive); with SF-268 it was 29.1 µM (inactive); in the assay on IGROV-1, 16.3 µM (inactive); in the assay on SK-MEL-5, 63.8 µM (inactive); in the assay on SR, 36.4 µM (inactive); in the assay with BT-549, 38.3 µM (inactive). The GI50 was 37.6 µM (inactive) in the assay with MDA-MB-435; 23.2 µM (inactive) with SK-MEL-28; 28.1 µM (inactive) in the assay with OVCAR-4; 26.4 µM (inactive) with HOP-92; 20.5 µM (inactive) with RXF 393; 64.4 µM (inactive) in the assay with COLO 205. Moreover, the GI50 in the assay with OVCAR-5 is 23 µM (inactive); with PC-3, 28.4 µM (inactive); with RPMI-8226, 89.9 µM (inactive); in the assay with KM12 it was 30.3 µM (inactive).
Turning to `C=C(c1ccccc1)[C@@]1(O)CCCC[C@H]1NC(c1ccccc1)c1ccccc1`, the GI50 in the assay on A498 was 13.9 µM (inactive); with SF-268, 13.6 µM (inactive); in the assay on IGROV-1 it was 16.2 µM (inactive); in the assay on HL-60 it was 2.65 µM (inactive); with SK-MEL-5, 9.51 µM (inactive); with SR it was 1.7 µM (inactive). Besides, the GI50 was 15.5 µM (inactive) in the assay with SK-MEL-28; 14.1 µM (inactive) in the assay on OVCAR-4; 12.6 µM (inactive) in the assay on HOP-92; 7.89 µM (inactive) in the assay on RXF 393; 14.2 µM (inactive) in the assay on COLO 205; 13.6 µM (inactive) in the assay on OVCAR-5. Moreover, the GI50 in the assay on HT-29 was 11.7 µM (inactive); with RPMI-8226, 3.94 µM (inactive); in the assay with KM12, 11.1 µM (inactive).
Regarding `O=C1NC(N2CCOCC2)=N/C1=C\c1ccccc1O`, the GI50 with A498 was > 100 µM (inactive); in the assay with SF-268, > 100 µM (inactive); in the assay on IGROV-1, > 100 µM (inactive); with DU-145 it was > 100 µM (inactive); in the assay with HL-60, 58.1 µM (inactive); with SK-MEL-5, > 100 µM (inactive). Further, the GI50 in the assay with MDA-MB-435, with SK-MEL-28, in the assay with OVCAR-4, in the assay with HOP-92, with Hs-578T and with RXF 393 was > 100 µM (inactive) throughout. The GI50 in the assay with COLO 205, in the assay with OVCAR-5, with PC-3, in the assay on HT-29, in the assay with RPMI-8226 and in the assay on KM12 was > 100 µM (inactive) throughout.
Consider `COc1cc(/C=C2\CCC(C)C3=C2NC(=S)NC3c2cc(OC)c(OC)c(OC)c2)cc(OC)c1OC` (stereo unspecified), for which the GI50 with A498 was 53 µM (inactive); with SF-268 it was 73.6 µM (inactive); in the assay with IGROV-1 it was 40.3 µM (inactive); in the assay on DU-145, 56.8 µM (inactive); with HL-60, 12.5 µM (inactive); in the assay with SK-MEL-5, 23.2 µM (inactive). In addition, the GI50 in the assay on SR was 25.2 µM (inactive); in the assay on MDA-MB-435 it was 38.2 µM (inactive); in the assay with SK-MEL-28, 30.4 µM (inactive); in the assay on OVCAR-4, 69 µM (inactive); in the assay on HOP-92 it was > 100 µM (inactive); with Hs-578T it was 37 µM (inactive). For the same compound, the GI50 was 34.1 µM (inactive) in the assay on RXF 393; > 100 µM (inactive) with OVCAR-5; 37.7 µM (inactive) in the assay with PC-3; 60.1 µM (inactive) with HT-29; 18.5 µM (inactive) in the assay on RPMI-8226; 32.3 µM (inactive) with KM12.
`COc1cc(/C=C2\[C@@H]3NC(Cc4c(OC)c(C)c(OC)c(OC)c43)C(=O)N2Cc2ccccc2)c(OC)c(C)c1OC`: the GI50 with A498 is 30.9 µM (inactive); in the assay with SF-268 it was 59.3 µM (inactive); with IGROV-1, 34.1 µM (inactive); in the assay with HL-60, 24.6 µM (inactive); in the assay with SK-MEL-5 it was 34.1 µM (inactive); with SR, 25 µM (inactive). For the same compound, the GI50 in the assay on SK-MEL-28 is 60.7 µM (inactive); in the assay on OVCAR-4 it was 32.3 µM (inactive); in the assay with HOP-92 it was 20 µM (inactive); in the assay with RXF 393, 23 µM (inactive); in the assay with COLO 205 it was 15 µM (inactive); in the assay on OVCAR-5, 41.3 µM (inactive). The GI50 in the assay on HT-29 is 24.9 µM (inactive); in the assay on RPMI-8226 it was 29.8 µM (inactive); in the assay on KM12, 56.1 µM (inactive).
In the case of `COc1cccc2c1NC(=O)Cc1c-2[nH]c2ccccc12`, the GI50 is > 100 µM (inactive) in the assay with A498; > 100 µM (inactive) with SF-268; > 100 µM (inactive) with IGROV-1; > 100 µM (inactive) in the assay with DU-145; > 100 µM (inactive) in the assay on HL-60; 41.9 µM (inactive) in the assay with SK-MEL-5. Further, the GI50 was > 100 µM (inactive) in the assay with SR; 29.1 µM (inactive) in the assay with MDA-MB-435; 30.8 µM (inactive) in the assay on SK-MEL-28; 98.2 µM (inactive) in the assay on OVCAR-4; > 100 µM (inactive) with HOP-92; 87.7 µM (inactive) in the assay on Hs-578T. Also, the GI50 in the assay with RXF 393 was > 100 µM (inactive); in the assay on COLO 205 it was > 100 µM (inactive); in the assay with OVCAR-5, > 100 µM (inactive); in the assay on PC-3 it was > 100 µM (inactive); in the assay with HT-29, 47.6 µM (inactive); with RPMI-8226, 31.2 µM (inactive). The GI50 with KM12 is 46.9 µM (inactive).
